Results taken from US10618912B2, “Diaryl macrocycles as modulators of protein kinases” (Turning Point Therapeutics, Inc., priority 2014, dated 2020).
pIC50: −log10 of the molar value.

Legend:
KM12 cells = assay: Caspase activity assay; assay type: cell-based; conditions: 72 hours, caspase3 glo / PARP immunoblot
Procedure: KM12 cells were maintained in DMEM medium supplemented with 10% fetal bovine serum and antibiotics. 500,000 cells were seeded in 12-well plate and various concentration of compounds were introduced for 72 hours For staurosporine treatment, 500 nM of STS were added at time of 60 hours and incubation of 12 hours as a positive control. All the cells were collected and washed with 1×PBS twice and then lysed in a lysis buffer (20 mM HEPES, 150 mM NaCl, 10 mM KCl, 5 mM EDTA, 1% NP40) supplemented with Halt protease and phosphatase inhibitors (Thermo Scientific). For caspase assays, around 20 μL (20 μg) of cell lysate were incubated with 20 μL, of caspase3 glo reagent (Promega), measuring enzyme activity by the release of luminescence after 20 min incubation at 37° C. For western blotting, cell lysates were boiled and analyzed by SDS-PAGE/immunoblotting using PARP, or actin antibodies.

[1] = system: Ba/F3-EML4-ALK wild type cell line; assay: EML4-ALK Ba/F3 cell proliferation assay; assay type: cell-based; conditions: 48 hours incubation, read-out: EML4-ALK Ba/F3 cell proli. IC50
Procedure: The EML4-ALK wild-type gene (variant 1) was synthesized at GenScript and cloned into pCDH-CMV-MCS-EF1-Puro plasmid (System Biosciences, Inc). Ba/F3-EML4-ALK wild type cell line was generated by infecting Ba/F3 cells with lentivirus containing EML4-ALK wide-type. Stable cell lines were selected by puromycin treatment, followed by IL-3 withdrawal. 5000 cells were seeded in 384 well white plate overnight before compound treatment. Cell proliferation was measured using CellTiter-Glo luciferase-based ATP detection assay (Promega) following the manufactures's protocol after 48 hours of various concentration of compound incubation. IC50 determinations were performed using GraphPad Prism software (GraphPad, Inc., San Diego, Calif.).

| Compound | apoptosis of KM 12 cells (KM12 cells) | pIC50 [1] |
| --- | --- | --- |
| CN1Cc2cc(F)ccc2OCCNC(=O)c2cnn3ccc1nc23 [Example 20, 11-fluoro-14-methyl-6,7,13,14-tetrahydro-1,15-ethenopyrazolo[4,3-f][1,4,8,10]benzoxatriazacyclo-tridecin-4(5H)-one] | induced apoptosis | – |
| C[C@H]1CNC(=O)c2cnn3ccc(nc23)N[C@H](C)c2cc(F)ccc2O1 [Example 93, (7S,13R)-11-fluoro-7,13-dimethyl-6,7,13,14-tetrahydro-1,15-ethenopyrazolo[4,3-f][1,4,8,10]benzoxatriazacyclotridecin-4(5H)-one] | – | 7.68 |
| C[C@@H]1CNC(=O)c2cnn3ccc(nc23)N[C@H](C)c2cc(F)ccc2O1 [Example 92, (7R,13R)-11-fluoro-7,13-dimethyl-6,7,13,14-tetrahydro-1,15-ethenopyrazolo[4,3-f][1,4,8,10]benzoxatriazacyclotridecin-4(5H)-one] | – | 7.10 |
| C[C@H]1Nc2ccn3ncc(c3n2)C(=O)NCCOc2ccc(F)cc21 [Example 51-1, (13R)-11-fluoro-13-methyl-6,7,13,14-tetrahydro-1,15-ethenopyrazolo[4,3-f][1,4,8,10]benzoxatriazacyclotridecin-4(5H)-one] | – | 6.61 |
